Reference: ChEMBL document CHEMBL5576132 (J Med Chem, 2024)
Activity calls are given as the source filed them. The rule behind the calls is not given here.

How the values were obtained:
NCI-H929 [1] = assay: Growth inhibition of human NCI-H929 cells measured after 72 to 96 hrs by cell-titer glo assay; assay type: functional; conditions: time 72-96 hrs
K562 = assay: Growth inhibition of human K562 cells measured after 72 to 96 hrs by cell-titer glo assay; assay type: functional; conditions: time 72-96 hrs
[2] = Dose normalized AUC in mouse at 5 mg/kg, iv by HPLC-MS/MS analysis; assay type: ADME, organism-based; conditions: in vivo
[3] = Clearance in dog assessed as hepatic blood flow at 0.9 mg/kg, iv by HPLC-MS/MS analysis; assay type: ADME, organism-based, Canis lupus familiaris, Liver; conditions: in vivo
[4] = AUC in CB17/Icr-Prkdc(scid)/IcrCrl mouse at 60 mg/kg, iv administered daily for 7 days and measured upto 21 days in presence of (R)-7-(7-Chloro-10-(3-(4-chloro-3,5-dimethylphenoxy)propyl)-4-methyl-1-oxo-6-(2,4,6-trimethylpyrimidin-5-yl)-3,4-dihydropyrazino[1,2-a]indol-2(1H)-yl)-4-methoxy-1-methyl-5-((tetrahydro-2H-pyran-4-yl)methoxy)-1H-indole-2-carboxylic Acid; assay type: ADME, organism-based; conditions: in vivo, time < 21 day
A-427 [5] = assay: Antitumor activity against human A-427 cells xenografted in CB17/Icr-Prkdc(scid)/IcrCrl mouse model assessed as tumor regression at 10 mg/kg, iv administered daily for 7 days and measured upto 21 days; assay type: functional, organism-based; conditions: time <= 21.0 day
A-427 [6] = assay: Antitumor activity against human A-427 cells xenografted in CB17/Icr-Prkdc(scid)/IcrCrl mouse model assessed as tumor regression at 60 mg/kg, iv administered daily for 7 days and measured upto 21 days in presence of docetaxel; assay type: functional, organism-based; conditions: time <= 21.0 day
[7] = Toxicity in CB17/Icr-Prkdc(scid)/IcrCrl mouse assessed as reduction in tumor area at 10 mg/kg, iv measured after 21 days by H and E staining based analysis; assay type: organism-based; conditions: in vivo, 504 h, time 21 day
[8] = Toxicity in CB17/Icr-Prkdc(scid)/IcrCrl mouse assessed as reduction in tumor area at 10 mg/kg, iv measured after 21 days by Ki67 staining based analysis; assay type: organism-based; conditions: in vivo, 504 h, time 21 day
[9] = Dose normalized AUC in mouse at 25 mg/kg, iv by HPLC-MS/MS analysis; assay type: ADME, organism-based; conditions: in vivo
NCI-H1048 [10] = assay: Antitumor activity against human NCI-H1048 cells xenografted in BomTac:NMRI-Foxn1nu mouse model assessed as tumor growth inhibition at 60 mg/kg, iv administered daily for 7 days and measured upto 16 days in presence of topotecan relative to control; assay type: functional; conditions: NCI-H1048, 384 h, time <= 16 day, read-out: TGI
[11] = Dose normalized AUC in mouse at 20 mg/kg, iv by HPLC-MS/MS analysis; assay type: ADME, organism-based; conditions: in vivo
[12] = target: Induced myeloid leukemia cell differentiation protein Mcl-1 (Homo sapiens) (UniProt Q07820); conditions: time 3.0 hrs
[13] = Clearance in dog assessed as hepatic blood flow at 0.5 mg/kg, iv by HPLC-MS/MS analysis; assay type: ADME, organism-based, Canis lupus familiaris, Liver; conditions: in vivo
Cytochrome P450 3A4 [14] = target: T1, Cytochrome P450 3A4 (Homo sapiens, UniProt P08684); assay: Inhibition of CYP3A4 (unknown origin); assay type: ADME
Cytochrome P450 2C8 = target: T2, Cytochrome P450 2C8 (Homo sapiens, UniProt P10632); assay: Inhibition of CYP2C8 (unknown origin); assay type: ADME
T2 sequence (P10632 whole entry): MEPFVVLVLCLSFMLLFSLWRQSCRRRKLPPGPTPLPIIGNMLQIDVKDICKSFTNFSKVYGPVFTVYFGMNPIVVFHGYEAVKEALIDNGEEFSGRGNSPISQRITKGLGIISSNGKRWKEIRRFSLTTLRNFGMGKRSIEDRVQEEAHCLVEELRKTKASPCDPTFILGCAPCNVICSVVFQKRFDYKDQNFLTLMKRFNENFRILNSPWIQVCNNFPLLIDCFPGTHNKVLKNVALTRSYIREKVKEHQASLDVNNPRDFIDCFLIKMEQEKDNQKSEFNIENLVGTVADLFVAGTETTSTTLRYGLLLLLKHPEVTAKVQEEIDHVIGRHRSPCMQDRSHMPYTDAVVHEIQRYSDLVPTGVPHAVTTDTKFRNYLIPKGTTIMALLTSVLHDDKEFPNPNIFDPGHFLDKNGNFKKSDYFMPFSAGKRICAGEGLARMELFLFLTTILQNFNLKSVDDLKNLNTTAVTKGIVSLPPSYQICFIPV

Cytochrome P450 3A4 [15] = target: T1, Cytochrome P450 3A4; assay: Time dependent inhibition of CYP3A4 (unknown origin) relative to control; assay type: ADME
A-427 [16] = assay: Antiproliferative activity against human A-427 cells at upto 1000 nM measured after 72 to 96 hrs in presence of docetaxel by cell-titer glo assay; assay type: functional, cell-based; conditions: time 72-96 hrs
[17] = Toxicity in CB17/Icr-Prkdc(scid)/IcrCrl mouse assessed as effect on body weight at 60 to 80 mg/kg, iv administered as single dose measured after 15 days; assay type: organism-based; conditions: in vivo, 360 h, dose 60-80 mg/kg, time 15 day
NCI-H929 [18] = assay: Antitumor activity against human NCI-H929 cells xenografted in CB17/Icr-Prkdc(scid)/IcrCrl mouse assessed as disruption of Mcl-1:BIM complex; assay type: functional, cell-based; conditions: time <= 48.0 hrs, TDE = time-dependent effect
NCI-H929 [19] = assay: Antitumor activity against human NCI-H929 cells xenografted in CB17/Icr-Prkdc(scid)/IcrCrl mouse model assessed as increase in […] activity measured upto 48 hrs by glo reagent based analysis; assay type: functional, cell-based
[20] = AUC in CB17/Icr-Prkdc(scid)/IcrCrl mouse at 60 mg/kg, iv administered daily for 7 days and measured upto 21 days in presence of docetaxel; assay type: ADME, organism-based; conditions: in vivo, time < 21 day
[21] = Plasma protein binding (unknown origin); assay type: ADME, cell-free; conditions: read-out: PPB (converted)
NCI-H1048 [22] = assay: Antitumor activity against human NCI-H1048 cells xenografted in BomTac:NMRI-Foxn1nu mouse model assessed as tumor growth regression at 60 mg/kg, iv administered daily for 7 days and measured upto 16 days in presence of topotecan; assay type: functional, organism-based; conditions: time <= 16.0 day
[23] = Toxicity in CB17/Icr-Prkdc(scid)/IcrCrl mouse assessed as reduction in tumor area at 60 mg/kg, iv measured after 21 days by H and E staining based analysis; assay type: organism-based; conditions: in vivo, 504 h, time 21 day
[24] = Toxicity in CB17/Icr-Prkdc(scid)/IcrCrl mouse assessed as reduction in tumor area at 60 mg/kg, iv measured after 21 days by Ki67 staining based analysis; assay type: organism-based; conditions: in vivo, 504 h, time 21 day
[25] = Toxicity in CB17/Icr-Prkdc(scid)/IcrCrl mouse assessed as reduction in tumor area at 60 mg/kg, iv measured after 21 days in presence of docetaxel by H and E staining based analysis; assay type: organism-based; conditions: in vivo, 504 h, time 21 day
[26] = Toxicity in CB17/Icr-Prkdc(scid)/IcrCrl mouse assessed as reduction in tumor area at 60 mg/kg, iv measured after 21 days presence of docetaxel by Ki67 staining based analysis; assay type: organism-based; conditions: in vivo, 504 h, time 21 day
[27] = Clearance in dog assessed as hepatic blood flow at 0.25 mg/kg, iv by HPLC-MS/MS analysis; assay type: ADME, organism-based, Canis lupus familiaris, Liver; conditions: in vivo

T1 sequence (P08684 whole entry): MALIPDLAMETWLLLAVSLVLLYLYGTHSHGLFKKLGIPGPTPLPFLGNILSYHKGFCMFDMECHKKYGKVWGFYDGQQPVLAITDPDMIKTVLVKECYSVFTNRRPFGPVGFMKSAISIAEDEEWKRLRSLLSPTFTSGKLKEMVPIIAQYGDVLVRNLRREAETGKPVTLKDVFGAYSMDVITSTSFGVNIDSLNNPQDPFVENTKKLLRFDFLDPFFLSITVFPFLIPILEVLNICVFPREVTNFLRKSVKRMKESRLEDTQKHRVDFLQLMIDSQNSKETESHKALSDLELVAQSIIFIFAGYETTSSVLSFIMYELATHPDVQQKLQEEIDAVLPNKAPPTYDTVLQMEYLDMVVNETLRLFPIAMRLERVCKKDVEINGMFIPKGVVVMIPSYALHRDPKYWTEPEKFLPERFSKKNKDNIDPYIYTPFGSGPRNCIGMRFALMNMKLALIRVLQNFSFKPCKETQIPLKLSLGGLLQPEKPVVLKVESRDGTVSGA
Chain of Induced myeloid leukemia cell differentiation protein Mcl-1 (Homo sapiens) (Q07820 whole entry): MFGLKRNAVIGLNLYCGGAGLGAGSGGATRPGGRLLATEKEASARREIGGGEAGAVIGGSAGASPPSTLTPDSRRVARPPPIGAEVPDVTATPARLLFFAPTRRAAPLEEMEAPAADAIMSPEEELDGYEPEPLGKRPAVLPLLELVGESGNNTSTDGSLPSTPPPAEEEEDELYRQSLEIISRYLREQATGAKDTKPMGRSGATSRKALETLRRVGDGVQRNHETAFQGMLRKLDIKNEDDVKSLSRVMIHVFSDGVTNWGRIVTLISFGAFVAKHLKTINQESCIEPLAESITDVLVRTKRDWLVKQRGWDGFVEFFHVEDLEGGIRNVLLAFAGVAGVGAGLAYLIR

## COc1c(O[C@H]2CCOC2)cc(N2C[C@@H](C)n3c(c(CCCOc4cc(C)c(Cl)c(C)c4)c4ccc(Cl)c(-c5c(C)nc(C)nc5C)c43)C2=O)c2c1cc(C(=O)O)n2C
NCI-H929 [1]
  GI50: 0.022 µM
K562
  GI50: 8 µM
[2]
  AUC/dose: 1860 nM·h/mg/kg
[3]
  QH: 38%

## CC(=O)O[C@@]12CO[C@@H]1C[C@H](O)[C@@]1(C)C(=O)[C@H](O)C3=C(C)[C@@H](OC(=O)[C@H](O)[C@@H](NC(=O)OC(C)(C)C)c4ccccc4)C[C@@](O)([C@@H](OC(=O)c4ccccc4)[C@H]21)C3(C)C [DOCETAXEL ANHYDROUS]
[4]
  AUC at 504 h: 0.0234 µM·h
A-427 [5]
  Activity: Active
A-427 [6]
  Activity: Active
[7]
  Activity: Non-Toxic
[8]
  Activity: Non-Toxic

## COCCOc1cc(N2C[C@@H](C)n3c(c(CCCOc4cc(C)c(Cl)c(C)c4)c4ccc(Cl)c(-c5c(C)ncnc5C)c43)C2=O)c2c(cc(C(=O)O)n2C)c1OC
[9]
  AUC/dose: 380 nM·h/mg/kg

## CC[C@@]1(O)C(=O)OCc2c1cc1n(c2=O)Cc2cc3c(CN(C)C)c(O)ccc3nc2-1 [TOPOTECAN]
NCI-H1048 [10]
  inhibition in vivo at 60 mg/kg: 108%

## CCOc1c(OCC2CCOCC2)cc(N2C[C@@H](C)n3c(c(CCCOc4cc(C)c(Cl)c(C)c4)c4ccc(Cl)c(-c5c(C)nc(C)nc5C)c43)C2=O)c2c1cc(C(=O)O)n2C
[11]
  AUC/dose: 4930 nM·h/mg/kg

## COc1c(O[C@@H]2CCOC2)cc(N2C[C@@H](C)n3c(c(CCCOc4cc(C)c(Cl)c(C)c4)c4ccc(Cl)c(-c5c(C)nc(C)nc5C)c43)C2=O)c2c1cc(C(=O)O)n2C
NCI-H929 [1]
  GI50: 0.026 µM
K562
  GI50: > 12 µM
[11]
  AUC/dose: 1420 nM·h/mg/kg

## Cc1cc(OCCCc2c3n(c4c(-c5c(C)nn(C)c5C)c(Cl)ccc24)[C@H](C)CN(c2cccc4cc(C(=O)O)n(C)c24)C3=O)cc(C)c1Cl
[12]
  Activity: inactive

## COc1c(OC[C@H]2CCCO2)cc(N2C[C@@H](C)n3c(c(CCCOc4cc(C)c(Cl)c(C)c4)c4ccc(Cl)c(-c5c(C)ncnc5C)c43)C2=O)c2c1cc(C(=O)O)n2C
[9]
  AUC/dose: 1480 nM·h/mg/kg

## COc1c(OCC2CCOCC2)cc(N2C[C@@H](C)n3c(c(CCCOc4cc(C)c(Cl)c(C)c4)c4ccc(Cl)c(-c5c(C)nc(C)nc5C)c43)C2=O)c2c1cc(C(=O)O)n2C
[9]
  AUC/dose: 9000 nM·h/mg/kg
[13]
  QH: 17%
Cytochrome P450 3A4 [14]
  IC50: 1.8 µM
Cytochrome P450 2C8
  IC50: 2.1 µM
Cytochrome P450 3A4 [15]
  TDI: 67%
A-427 [16]
  Activity: Active
[17]
  Activity: Non-Toxic
NCI-H929 [18]
  Activity: Tde
NCI-H929 [19]
  Activity: Active
[20]
  AUC at 504 h: 0.382 µM·h
[21]
  fraction unbound: 0.002
NCI-H1048 [22]
  Activity: Active
[23]
  Activity: Non-Toxic
[24]
  Activity: Non-Toxic
[25]
  Activity: Non-Toxic
[26]
  Activity: Non-Toxic

## COCCOc1cc(N2C[C@@H](C)n3c(c(CCCOc4cc(C)c(Cl)c(C)c4)c4ccc(Cl)c(-c5c(C)nc(C)nc5C)c43)C2=O)c2c(cc(C(=O)O)n2C)c1OC
[9]
  AUC/dose: 334 nM·h/mg/kg
[27]
  QH: 50%

## CCOc1c(O[C@H]2CCOC2)cc(N2C[C@@H](C)n3c(c(CCCOc4cc(C)c(Cl)c(C)c4)c4ccc(Cl)c(-c5c(C)nc(C)nc5C)c43)C2=O)c2c1cc(C(=O)O)n2C
[11]
  AUC/dose: 2460 nM·h/mg/kg

## COc1c(OC[C@H]2CCCO2)cc(N2C[C@@H](C)n3c(c(CCCOc4cc(C)c(Cl)c(C)c4)c4ccc(Cl)c(-c5c(C)nc(C)nc5C)c43)C2=O)c2c1cc(C(=O)O)n2C
[11]
  AUC/dose: 2510 nM·h/mg/kg

## COc1c(OCC2CCOCC2)cc(N2C[C@@H](C)n3c(c(CCCOc4cc(C)c(Cl)c(C)c4)c4ccc(Cl)c(-c5c(C)ncnc5C)c43)C2=O)c2c1cc(C(=O)O)n2C
[11]
  AUC/dose: 2830 nM·h/mg/kg

## COc1c(OC[C@@H]2CCCO2)cc(N2C[C@@H](C)n3c(c(CCCOc4cc(C)c(Cl)c(C)c4)c4ccc(Cl)c(-c5c(C)nc(C)nc5C)c43)C2=O)c2c1cc(C(=O)O)n2C
[11]
  AUC/dose: 2190 nM·h/mg/kg
[3]
  QH: 29%
